Source: patent US20230265068A1, “TRANSIENT RECEPTOR POTENTIAL CANONICAL 3 INHIBITORS AND METHODS OF USE THEREOF” (University of Tennessee Research Foundation, priority 2020, published 2023)

Key:
PTZ-induced seizures = test: mouse pentylenetetrazole (PTZ) model of SE; assay type: in vivo, mice; conditions: 100 mg/kg, i.p., 30 min before PTZ; vs vehicle
Experimental: FIGS. 8A-8B show the inhibition of TRPC3 channels by compound 22 reduces susceptibility of animals to PTZ-induced seizures. Young adult C57BL/6 mice (male, 8-9 weeks) were first treated by compound 22 (100 mg/kg, i.p.), and 30 minutes later by pentylenetetrazole (PTZ, 80±5 mg/kg, s.c.) for the induction seizures. (FIG. 8A) Percentages of mice reaching myoclonic jerk (MJ, Left) and generalized tonic-clonic seizure (GTCS, Right) were compared between vehicle and compound 22-treated mice by Mantel-Cox log-rank test. (FIG. 8B) Latencies to the first MJ (Left) and first GTCS (Right) were compared between vehicle and compound 22 by t-test. Data are shown as mean+SEM (number of mice N=9 for vehicle; 10 for compound 22).
To ensure that the efficacy observed in FIG. 7 is not associated with this particular mouse model of epilepsy, we examined the effects of our current lead compound 22 on pentylenetetrazole (PTZ)-induced seizures in mice. As a GABA receptor antagonist, PTZ is another convulsant chemical commonly used to generate seizures in experimental rodents. Young adult C57BL/6 mice (male, 8-9 weeks) were first treated by 22 (100 mg/kg, i.p.) or vehicle. Thirty minutes later, mice were subcutaneously injected with (PTZ, ˜80 mg/kg) to induced seizures. Animals were placed in a plexiglass chamber, and the latencies to the first myoclonic jerk (MJ) and the first generalized tonic-clonic seizure (GTCS) were recorded during a 30-min period of observation. […] Given that PTZ (FIG. 8) and pilocarpine (FIG. 7) trigger seizures via different mechanisms of actions, it is unlikely the anti-seizure effects of our lead compound 22 are model-specific.

mmTRPC6 = target: T1, mmTRPC6 (Mus musculus, UniProt Q61143); test: whole-cell patch clamp selectivity, HEK 293 cells overexpressing mmTRPC6; assay type: cell-based; conditions: HEK293, with agonist, solutions without Ca2+, read-out: % of the current of hTRPC6 inhibited
T1 construct: expressed in transfected cells; host or cells: HEK293, transient transfection, pMO vector
T1 sequence (Q61143 1-930): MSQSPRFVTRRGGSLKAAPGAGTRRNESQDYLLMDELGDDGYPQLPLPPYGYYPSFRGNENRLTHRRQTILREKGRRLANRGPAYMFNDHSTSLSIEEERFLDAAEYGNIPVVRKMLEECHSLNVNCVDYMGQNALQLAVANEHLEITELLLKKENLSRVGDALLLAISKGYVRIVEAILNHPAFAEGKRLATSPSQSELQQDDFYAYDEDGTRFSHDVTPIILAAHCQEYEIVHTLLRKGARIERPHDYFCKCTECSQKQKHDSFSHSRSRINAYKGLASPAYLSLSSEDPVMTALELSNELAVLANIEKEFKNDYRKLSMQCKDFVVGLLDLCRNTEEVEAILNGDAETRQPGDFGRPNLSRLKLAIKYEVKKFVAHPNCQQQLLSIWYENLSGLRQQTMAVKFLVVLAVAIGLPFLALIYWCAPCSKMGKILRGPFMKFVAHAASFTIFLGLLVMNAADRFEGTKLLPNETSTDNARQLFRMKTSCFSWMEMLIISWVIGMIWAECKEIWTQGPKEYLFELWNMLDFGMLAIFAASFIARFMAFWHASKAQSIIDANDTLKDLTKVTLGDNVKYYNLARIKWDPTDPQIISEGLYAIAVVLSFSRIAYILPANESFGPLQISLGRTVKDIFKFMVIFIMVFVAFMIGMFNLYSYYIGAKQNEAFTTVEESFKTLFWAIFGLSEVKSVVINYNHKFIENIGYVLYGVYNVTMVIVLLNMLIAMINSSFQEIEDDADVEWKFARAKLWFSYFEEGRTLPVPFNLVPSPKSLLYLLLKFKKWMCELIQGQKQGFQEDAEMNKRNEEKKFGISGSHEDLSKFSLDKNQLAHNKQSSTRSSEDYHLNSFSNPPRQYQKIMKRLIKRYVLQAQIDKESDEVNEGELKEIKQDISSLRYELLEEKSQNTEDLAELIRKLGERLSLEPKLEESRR
Experimental: Human embryonic kidney 293 (HEK293; catalog number CRL-1573) cells were cultured in Dulbecco's modified Eagle's medium (Invitrogen) supplemented with 10% fetal bovine serum and 1% penicillin-streptomycin at 37° C. and 5% CO2. Constructs cloned in pMO (a pcDNA3-modified vector) were co-transfected with GFP-pMO, using Lipofectamine 2000 (Invitrogen) according to the manufacturer's instructions. Macroscopic currents in the whole-cell patch clamp configuration were recorded 18-24 h post-transfection. The extracellular solution contained 140 mM NaCl, 6 mM KCl, 2 mM MgCl2, 10 mM HEPES, and 10 mM glucose (pH 7.4). Pipettes were made of borosilicate glass (outer diameter, 1.5 mm; inner diameter, 1.10 mm; Sutter Instruments) and fire-polished with a resistance between 2.8 and 4.0 megaohms when filled with an intracellular solution that contained 140 mM CsCl, 5 mM EGTA, and 10 mM HEPES, pH 7.2. Currents were recorded with a Multiclamp 700B amplifier (Molecular Devices) using a 1-s ramp from −100 to 100 mV. […] Data were acquired with a sampling rate of 20 kHz, low-pass filtered (10 kHz), and analyzed offline using Clampfit v10.4.2.0 (Molecular Devices). […]

## CCNC(=O)c1cnn(-c2ccc(-n3ccc(Cl)c(Cl)c3=O)cc2)c1C(F)(F)F [Compound 22]
PTZ-induced seizures
  latency to first GTCS: significantly increased
  latency to first MJ: significantly increased
  percentage of mice that reached generalized tonic-clonic seizure (GTCS): substantially reduced
  percentage of mice that reached myoclonic jerk (MJ): substantially reduced
mmTRPC6
  inhibition at 10 µM: ~39%
